Results taken from US20210260008A1, “COMBINATION THERAPY FOR TREATING CANCER” (THE JOHNS HOPKINS UNIVERSITY, priority 2018, published 2021).
Like-named read-outs stand apart in the source and are kept apart here.

Experiments:
[1] = tested on: immune cells in tumor associated ascites (tumor microenvironment); assay: Flow cytometry of immune cell populations in tumor associated ascites of VDID8 mice; assay type: in vivo, mouse; settings: for Percentage of M1 macrophages (MHCII+ CD206−) / total numbers of lymphocytes in ascites: week 5; for T cell, NK cell, and IFNγ+ lymphocyte populations: week 5 post tumor injection; for MHC II positive (MHCII Hi, M1-like) macrophages: compared to vehicle; for total numbers of lymphocytes in ascites: compared to vehicle / single agents
Method: Ascites tissue harvest and processing. When ascites fluid is collected from the mice, the cells obtained represent the tumor microenvironment and can be further analyzed to help illustrate the mixed population of cells surrounding the tumor. Ascites was collected, filtered, incubated in ACK buffer (Quality Biological) to lyse red blood cells, and washed. The mononuclear cells collected were then cultured for four hours in RPMI (Corning) with 10% FBS in the presence of phorbol 12-myristate 13-acetate (PMA) and ionomycin to stimulate cells, and brefeldin A and monensin (Invitrogen 00-4975-93) to cause aggregation of secreted proteins inside the cell.
Flow cytometry. Cells were washed and blocked with FcR Blocking Reagent (Miltenyi Biotec 130-092-575) and stained for cell-surface markers including Live/Dead (eBioscience 65-0865-14), CD45 (BD Biosciences 563891), CD3 (BD Biosciences 560527), CD4 (BD Biosciences 563331), CD8 (BD Biosciences 563152), NK1.1 (BD Biosciences 562921), F4/80 (BioLegend 123113), CD11b (BioLegend 101222), MHC II (isotype control 400627; BioLegend 107619), CD206 (BioLegend 141708), CD11c (BD Biosciences 564079), Ly6C (BD Biosciences 562728), Ly6G (BD Biosciences 563005), CD80 (BD Biosciences 553769), and CD86 (BD Biosciences 558703). Cells were permeabilized and stained for intracellular IFNγ (isotype control 554686; BD Biosciences 554413). Flow cytometry acquisition was performed on an LSR II cytometer (BD Biosciences), and data were analyzed using FlowJo software version 10.2.
Flow sorting. Lysed and processed bulk ascites cells were blocked with FcR Blocking Reagent (Miltenyi Biotec 130-092-575) and stained for cell-surface markers including Live/Dead (eBioscience 65-0865-14), CD45 (BD Biosciences 563891), F4/80 (BioLegend 123113), CD11b (BioLegend 101222), MHC II (isotype control 400627; BioLegend 107619), CD206 (BioLegend 141708), and CD11c (BD Biosciences 564079). Prepared cells were suspended in PBS and sorted immediately on a BSL-2 FACSAria II. M1 macrophages were sorted on a gate as follows: CD45+ L/D− F4\80+ CD11b+ MHC II+ CD206− CD11c−. M2 macrophages were sorted on a gate as follows: CD45+ L/D− F4\80+ CD11b+ MHC II− CD206+ CD11c−.

VDID8 cells = assay: HPLC analysis of polyamine levels in cultured, treated VDID8 cells; assay type: cell-based, mouse; settings: in vitro; 500 nM AZA 10 days, 5 mM DFMO 3 days
Method: (§1) FIG. 6A-6B. DFMO treatment of VDID8 cells in vitro reduces putrescene and spermidine levels. FIG. 6A: VDID8 cells were cultured in 10% FBS RPMI+gentamicin for one week prior to beginning 10 day treatment. Cells were treated with 500 nM AZA/saline for 10 days and 5 mM DFMO/water for 3 days. AZA+DFMO cells were treated with 500 nM AZA for the first 7 days, and 500 nM AZA + 5 mM DFMO for the final 3 days of treatment. High-performance liquid chromatography (HPLC) analysis of polyamine levels in cultured, treated VDID8 cells are shown. n=3. FIG. 6B: Bulk ascites fluid was collected from individual mice treated with DFMO, AZA, or AZA+DFMO. Bulk ascites cells were lysed and washed and remaining cells were prepped for HPLC analysis of polyamine levels. n=4-10. All data were tested for a Gaussian distribution and found to be normal using Shapiro-Wilk test. Significance was determined using a one way ANOVA.
(§2) Polyamines. Polyamines were analyzed via high-performance liquid chromatography (HPLC) as previously described (36).

bulk ascites cells = assay: HPLC analysis of polyamine levels in bulk ascites cells from treated mice; assay type: in vivo, mouse; settings: bulk ascites cells from treated animals
Method: as §1, §2

[2] = cited from earlier work
2208L breast tumors = assay: 2208L breast tumor mouse model
Source text: Significance determined using log-rank Mantel-Cox test.
Tumor size as measured once weekly in mice bearing 2208L breast tumor xenografts (week 6 post tumor implant).
Mature or activated dendritic cells in the tumor microenvironment of the 2208L breast cancer model, shown as a percentage of dendritic cells.

[3] = tested on: VEGF-β-Defensin ID8 (VDID8) syngeneic mouse ovarian surface epithelial (MOSE) cells; assay: VDID8 syngeneic ovarian cancer mouse model: tumor burden (ascites volume) and survival; settings: for median survival / overall survival / tumor burden (ascites volume): VDID8 mice; for median survival / overall survival: AZA 0.5 mg/kg i.p., 2% DFMO in water; for tumor burden (ascites volume): treated vs vehicle; for tumor burden (ascites volume) compared with combination therapy: second ascites drain, week 5 post tumor injection
Method: Mice were injected i.p. with 250,000 VEGF-DEFB ID8 MOSE cells (VDID8). 0.5 mg/kg of AZA was given i.p. 5 days a week, every other week. 2% DFMO was provided in water bottles. Mice were treated throughout the duration of the experiment. Upon 25-30% weight gain, ascites fluid was drained from mice and processed for analysis of the tumor microenvironment. FIG. 1B: Tumor burden, represented by ascites volume, 5 weeks post tumor injection. Data is from the second ascites drain procedure, the first was 4 weeks post tumor injection. Representative data (mean +/−SEM shown). n=10; four biological replicates. Data were tested for a Gaussian distribution using Shapiro-Wilk test and found not to be normal. Significance was determined using Kruskal Wallis test; statistical outliers removed using Peirce's criterion. FIG. 1C: Representative survival curve (median survival in days); n=10; four biological replicates. Significance determined using log-rank Mantel-Cox test.
Animals. Female C57BL/6NHsd wild-type (WT) mice (7-8 wk old) were purchased from Envigo International Holdings, Inc. (Indianapolis, Ind.). Mice were housed at the Johns Hopkins Kimmel Cancer Center Animal Resources Core and cared for in accordance with the policies of The Johns Hopkins University Animal Care and Use Committee and our approved animal protocol.
Syngeneic mouse model. 250,000 VEGF-β-Defensin ID8 (VDID8) syngeneic mouse ovarian surface epithelial (MOSE) cells were injected intraperitoneally into wild-type (WT) C57BL/6 mice.
Mice were treated with 0.5 mg/kg AZA/saline, Monday through Friday, every other week and continuous 2% DFMO in drinking water.
Mice were treated IP with AZA (0.5 mg/kg) or saline vehicle, DFMO (2% in water), or combination AZA and DFMO beginning three days post tumor injection (FIG. 1A).

[4] = tested on: LPS-stimulated macrophages; settings: LPS-stimulated macrophages in vitro (ref. 48); cited from earlier work

| Compound | total macrophage populations in the tumor microenvironment ([1]; ascites) | Percentage of M1 macrophages (MHCII+ CD206−) ([1]; ascites) | T cell, NK cell, and IFNγ+ lymphocyte populations ([1]; ascites) | MHC II positive (MHCII Hi, M1-like) macrophages [1] | total numbers of lymphocytes in ascites [1] | putrescine and spermidine levels (VDID8 cells) | polyamine levels (putrescine, spermidine, spermine) (bulk ascites cells) | solubility ([2]; acetone, ethanol and methyl ketone) | solubility ([2]; dimethylsulfoxide (DMSO)) | solubility ([2]; ethanol/water (50/50), propylene glycol and polyethylene glycol) | solubility ([2]; water, water-saturated octanol, 5% dextrose in water, N-methyl-2-pyrrolidone, normal saline and 5% Tween 80 in water) | mature or activated dendritic cells as a percentage of dendritic cells (2208L breast tumors; tumor microenvironment of 2208L model) | tumor burden / tumor size (2208L breast tumors; weeks 3 through 6 post tumor implant surgery) | median survival [3] | overall survival [3] | tumor burden (ascites volume) [3] | tumor burden (ascites volume) compared with combination therapy [3] | NO production [4] | tumor volume (2208L breast tumors; measured once weekly, week 6 post tumor implant) |
| --- | --- | --- | --- | --- | --- | --- | --- | --- | --- | --- | --- | --- | --- | --- | --- | --- | --- | --- | --- |
| Nc1ncn([C@@H]2O[C@H](CO)[C@@H](O)[C@H]2O)c(=O)n1 [AZA, 4-amino-1-β-D-ribofuranozyl-s-triazin-2(1H)-one] | consistently decreased | increased | significant increases | increased | significantly increased | stimulatory effect | No significant changes | insoluble | soluble | slightly soluble | sparingly soluble | increases activation | no impact on tumor size | approximately 44 days | significantly increased survival | decreased tumor burden | higher tumor burden | – | – |
| NCCCC(N)(C(=O)O)C(F)F (centres unmarked) [DFMO, 2-(difluoromethyl)-2,5-diaminopentanoic acid] | – | increased | significant increases | increased | significantly increased | significant decrease | decreased (although not significantly) | – | – | – | – | – | – | approximately 44 days | significantly increased survival | decreased tumor burden | higher tumor burden | potentiate NO production | maintains low tumor volumes |
